Legend:
[1] = Brain concentrations in the rat after oral dosing (observed); assay type: in vivo, male Wistar rats; details: oral 4 mg/kg
From the text: Animal Care and Welfare Committee of Institute of Materia Medica, Chinese Academy of Medical Sciences approved all animal protocols (1 Xian nong tan Street, Xicheng District, Beijing, China; Permission Number: SYXK 2014-0023, Expiration: 06 Aug, 2019). All animal programs are in compliance with the Guide for the Care and Use of Laboratory Animals issued by Beijing Association on Laboratory Animal Care (BALAC). Buagafuran formulation of PVP was suspended in deionized water and was orally administered at 4 or 8 mg/kg to male Wistar rats (weighing 180–200 g). Brain samples treated with the dose of 4 mg/kg and blood samples of both treatments were collected over 3 h. Plasma samples were obtained by centrifugation, and brain tissues were homogenized in a threefold volume (w/v) of saline. Buagafuran concentrations in plasma and brain samples were quantitated by an LC-MS/MS method ([Yang et al., 2011]).
A volume of 200 μL plasma or tissue homogenate was mixed with 100 μL IS (10 ng/mL) followed by addition of 2 mL hexane. After vortexing for 2 min, the mixture was centrifuged for 5 min at 3000 g. The extracted solution was combined and evaporated to dryness at 25°C. […] The outlet of the column was detected in positive ionization electrospray mode with selected reaction monitoring. The monitored transitions of buagafuran and IS were m/z 245→105 and 500→142, respectively. […]

[2] = Clearance prediction from incubation with human liver microsomes; assay type: in vitro ADME
Procedure: Drug disappearance t1/2 value measurements in rat and human microsomes were used to determine the in vitro apparent intrinsic clearance value (CLintapp) of buagafuran acquired using Then CLintapp was converted to in vivo intrinsic clearance (CLint).
Rat or human liver microsomal incubation (0.5 mg/mL) was carried out at 37°C in a mixture of 0.5 mL in 0.05 M Tris–HCl buffer (pH 7.4). Buagafuran (2 μM) was added to the incubation system. The addition of NADPH (1 mM) initiated the reaction, then the reaction was incubated for 0, 10, 20, 30, 45, and 60 min. The equal volume of acetonitrile containing the IS (10 ng/mL) was added to stop the reaction. The mixtures were centrifuged at 16000 g for 5 min and the supernatants were determined using LC-MS/MS method.
The natural log (In) of buagafuran concentration versus time was plotted and the slope of the best fit line of was determined by the data (k). This was converted into in vitro t1/2 where t1/2 = In 2/k. CLintapp was calculated by the following equation: […]
Where M is the microsomal protein concentration in the incubation. CLint by liver was calculated from equation 2:
(2) CLint=CLint(app)×mgmicrosome/gliver×liverweight(g)/bodyweight(kg)
Where a value of 45 mg of protein per gram of liver tissue was used for both rat and human, and a liver weight of 40 and 21 g per kg were applied to rat and human, respectively ([Hosea et al., 2009]). […]

[3] = PBPK simulation in human (GastroPlus); details: optimized by comparing fitting with observed PK data
From the text: GastroPlus^TM software (version 8.5) was used to perform all simulations, (Simulations Plus, Inc., Lancaster, CA, United States). The absorption of oral formulations from the GI tract was modeled by the advanced compartmental absorption and transit (ACAT^TM) model implemented in GastroPlus ([Agoram et al., 2001]; [Kuentz et al., 2006]; [Huang et al., 2009]; [Zhang et al., 2011]). Input parameters in the ACAT model include three groups: formulation properties, physicochemical properties and pharmacokinetic parameters. […] The immediate release (IR) suspension for rat and IR capsule for human were selected for simulation of buagafuran in GastroPlus^TM. The ACAT model consists of nine compartments that mimic the GI tract. Each GI tract has an associated ASF. ASF is the multiplier used to scale the permeability to account for different surface-to-volume ratios, pH effects, transporter differences, and other factors that affect absorption between different compartments ([Zhang et al., 2011]). Four coefficients C1–C4 are used to calculate ASF. And there are eight basic ASF models in version 8.5. […]
The pharmacokinetic parameters of unbound fraction in plasma (FUp) were experimentally measured values. […]

CCCCC1=CCC[C@@]2(C)CC[C@@H]3C[C@]12OC3(C)C [buagafuran]
Tmax ([1]; male, Wistar, brain, read-out: time of maximum concentrations in brain): 15 to 30 min
time at which brain concentrations were detected [1]: 5 min
CLhep predicted ([2]; from human liver microsomes, well-stirred model): 7.7 mL/min/kg
microsomal CLint at 2 μM ([2]; pH 7.4, human liver microsomes 0.5 mg/mL, 2 μM, read-out: in vitro CLintapp): 22 µL/min/mg
input (refined) CLhep [3]: 11.7 mL/min/kg

Source: paper PMC5641330, “Prediction of a Therapeutic Dose for Buagafuran, a Potent Anxiolytic Agent by Physiologically Based Pharmacokinetic/Pharmacodynamic Modeling Starting from Pharmacokinetics in Rats and Human” (Frontiers in Pharmacology, 2017)
